Laboratory results: patent publication US7723380B2, “Antiviral protease inhibitors” (Gilead Sciences, Inc., priority 2006, dated 2010)

Molecular target: T1, recombinant HIV-1 protease expressed in E. Coli (Human immunodeficiency virus type 1 group M subtype B, UniProt P04585)
T1 construct: Enzyme: recombinant HIV-1 protease expressed in E. Coli; purchased Bachem California, Inc. (Torrance, Calif.) H-9040; host or cells: E. coli
Experiment: HIV-1 Protease Enzyme Assay (Ki), fluorimetric detection of hexapeptide substrate cleavage
Assay type: biochemical
Details: recombinant HIV-1 protease 1 to 2.5 nM, substrate 40 μM, pH 5.3, 37° C., tight-binding competitive inhibition
Excerpt: Biological Assays Used for the Characterization of HIV Protease Inhibitors HIV-1 Protease Enzyme Assay (Ki)
The assay is based on the fluorimetric detection of synthetic hexapeptide substrate cleavage by HIV-1 protease in a defined reaction buffer as initially described by M. V. Toth and G. R. Marshall, Int. J. Peptide Protein Res. 36, 544 (1990)
Substrate: (2-aminobenzoyl)Thr-Ile-Nle-(p-nitro)Phe-Gln-Arg
Substrate supplied by Bachem California, Inc. (Torrance, Calif.; Cat. no. H-2992)
Enzyme: recombinant HIV-1 protease expressed in E. Coli
Enzyme supplied by Bachem California, Inc. (Torrance, Calif.; Cat. no. H-9040)
Reaction buffer: 100 mM ammonium acetate, pH 5.3
• 1 M sodium chloride • 1 mM ethylendiaminetetraacetic acid • 1 mM dithiothreitol • 10% dimethylsulfoxide Assay Protocol for the Determination of Inhibition Constant Ki: • 1. Prepare series of solutions containing identical amount of the enzyme (1 to 2.5 nM) and a tested inhibitor at different concentrations in the reaction buffer • 2. Transfer the solutions (190 μL each) into a white 96-well plate • 3. Preincubate for 15 min at 37° C. • 4. Solubilize the substrate in 100% dimethylsulfoxide at a concentration of 800 μM. Start the reaction by adding 10 μL of 800 μM substrate into each well (final substrate concentration of 40 μM) • 5. […]

CCOP(=O)(COc1ccc(C[C@H](NC(=O)O[C@H]2CO[C@H]3OCC[C@H]32)[C@@H](O)CN(Cc2ccc(-c3ccccn3)cc2)NC(=O)[C@@H](NC(=O)OC)C(C)(C)C)cc1)OCC [Example AY]
Ki: < 0.03 nM
